Test results from US20090143279A1 (priority 2007, published 2009).
Read-outs that look alike come from different tables or passages of the source.

Experiments:
nuOXPHOS transcripts = assay type: cell-based, mouse; conditions: for nucOX (composite Z-score): normalized score vs mock-treated (DMSO) wells
[1] = test system: cellular dehydrogenase activity; conditions: for MTT (composite Z-score): normalized score vs mock-treated (DMSO) wells
cytochrome c = assay type: cell-based, mouse; conditions: for cyt c (composite Z-score): normalized score vs mock-treated (DMSO) wells
mtOXPHOS transcripts = assay type: cell-based, mouse; conditions: for mitoOX (composite Z-score): normalized score vs mock-treated (DMSO) wells
C2C12 myotubes = conditions: for Viability (composite Z-score): normalized score vs mock-treated (DMSO) wells
reactive oxygen species = assay type: cell-based, mouse; conditions: for ROS (composite Z-score): normalized score vs mock-treated (DMSO) wells
[2] = test system: mitochondrial membrane potential; assay type: cell-based, mouse; conditions: for ΔΨm (composite Z-score): normalized score vs mock-treated (DMSO) wells
OXPHOS gene expression = assay type: cell-based, mouse; conditions: for GE-HTS (composite Z-score): normalized score vs mock-treated (DMSO) wells
[3] = Table 7, C2C12 myotubes, 48 h, composite Z-score
[4] = normalized composite Z-score vs mock-treated (DMSO) wells, Conc 20 μM
[5] = composite Z-score vs mock-treated (DMSO) wells, Conc 20 μM
[6] = composite Z-score vs DMSO, Conc 20 μM
[7] = 20 μM, composite Z-score vs DMSO
[8] = composite Z-score vs DMSO wells, Conc 20 μM
[9] = 18.76 μM, composite Z-score vs DMSO

Sequence of cytochrome c (P62897 whole entry): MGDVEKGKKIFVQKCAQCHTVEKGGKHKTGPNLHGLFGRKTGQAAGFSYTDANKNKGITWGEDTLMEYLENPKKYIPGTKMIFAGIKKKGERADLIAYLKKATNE

COc1ccc2c(=O)c(CC(=O)O)coc2c1 [anhydrobrazilic acid, reference compound]
nucOXPHOS Z (nuOXPHOS transcripts; [3]): 1.56
nucOX (nuOXPHOS transcripts; [4]): 1.559
MTT [1, 4]: −1.007
cyt c (cytochrome c; [4]): 0.579
mito-OXPHOS Z (mtOXPHOS transcripts; [3]): 1.68
mitoOX (mtOXPHOS transcripts; [4]): 1.678
Viability (C2C12 myotubes; [4]): −0.072
ROS (reactive oxygen species; [4]): 0.388
ΔΨm [2, 4]: −0.353
GE-HTS (OXPHOS gene expression; [4]): 1.730

COc1cc(OC)c2c(=O)cc(-c3ccccc3)oc2c1 [chrysin dimethyl ether]
nucOX (composite Z-score) (nuOXPHOS transcripts; Conc 20 μM): 0.444
MTT (composite Z-score) ([1]; Conc 20 μM): −1.043
cyt c (composite Z-score) (cytochrome c; Conc 20 μM): −1.016
mitoOX (composite Z-score) (mtOXPHOS transcripts; Conc 20 μM): 0.470
Viability (composite Z-score) (C2C12 myotubes; Conc 20 μM): −0.006
ROS (composite Z-score) (reactive oxygen species; Conc 20 μM): 1.158
ΔΨm (composite Z-score) ([2]; Conc 20 μM): 0.541
GE-HTS (composite Z-score) (OXPHOS gene expression; Conc 20 μM): 0.480

CC(C)=CCOc1cc2oc(=O)ccc2cc1O [prenyletin]
nucOX (nuOXPHOS transcripts; [5]): −0.015
MTT [1, 5]: −1.166
cyt c (cytochrome c; [5]): 0.150
mitoOX (mtOXPHOS transcripts; [5]): 0.282
Viability (C2C12 myotubes; [5]): 0.919
ROS (reactive oxygen species; [5]): −0.090
ΔΨm [2, 5]: 0.772
GE-HTS (OXPHOS gene expression; [5]): 0.113

CCCCCC1C(=O)CCC1CC(=O)OC (centres unmarked) [dihydrojasmonic acid, methyl ester]
nucOX (nuOXPHOS transcripts; [6]): 0.831
MTT [1, 6]: −0.452
cyt c (cytochrome c; [6]): −0.281
mitoOX (mtOXPHOS transcripts; [6]): 1.068
Viability (C2C12 myotubes; [6]): 0.971
ROS (reactive oxygen species; [6]): −0.386
ΔΨm [2, 6]: −0.204
GE-HTS (OXPHOS gene expression; [6]): 0.948

COc1ccc(-c2coc3c(OC)c(O)ccc3c2=O)cc1 [7-hydroxy-8,4′-dimethoxyisoflavone]
nucOX (nuOXPHOS transcripts; [4]): −0.994
MTT [1, 4]: −1.073
cyt c (cytochrome c; [4]): 0.363
mitoOX (mtOXPHOS transcripts; [4]): −0.667
Viability (C2C12 myotubes; [4]): −1.022
ROS (reactive oxygen species; [4]): 1.404
ΔΨm [2, 4]: −0.417
GE-HTS (OXPHOS gene expression; [4]): −0.962

CCOC(=O)c1oc2c(OC)c(O)cc(O)c2c(=O)c1-c1cc(OC)c(OC)c(OC)c1
nucOX (nuOXPHOS transcripts; [5]): −1.229
MTT [1, 5]: −0.761
cyt c (cytochrome c; [5]): −0.783
mitoOX (mtOXPHOS transcripts; [5]): −1.218
Viability (C2C12 myotubes; [5]): −1.124
ROS (reactive oxygen species; [5]): 0.244
ΔΨm [2, 5]: −0.397
GE-HTS (OXPHOS gene expression; [5]): −1.306

COc1cc(-c2coc3cc(OCc4ccccc4)c(OC)c(O)c3c2=O)cc(O)c1OC [irigenin, 7-benzyl ether]
nucOX (nuOXPHOS transcripts; [5]): −1.386
MTT [1, 5]: −1.179
cyt c (cytochrome c; [5]): −0.617
mitoOX (mtOXPHOS transcripts; [5]): −1.100
Viability (C2C12 myotubes; [5]): −0.334
ROS (reactive oxygen species; [5]): 1.548
ΔΨm [2, 5]: 0.948
GE-HTS (OXPHOS gene expression; [5]): −1.362

CC1(C)CC2C1CC[C@]1(CBr)CCC3C(CC(=O)O)C(=O)O[C@@]32C1 (some centres unmarked)
nucOX (nuOXPHOS transcripts; [4]): −0.612
MTT [1, 4]: −0.892
cyt c (cytochrome c; [4]): 0.551
mitoOX (mtOXPHOS transcripts; [4]): −1.624
Viability (C2C12 myotubes; [4]): −0.498
ROS (reactive oxygen species; [4]): 0.604
ΔΨm [2, 4]: −0.084
GE-HTS (OXPHOS gene expression; [4]): −1.029

C=CCc1ccc(O)c(OC)c1 [eugenol]
nucOX (nuOXPHOS transcripts; [7]): −0.166
MTT [1, 7]: −0.243
cyt c (cytochrome c; [7]): 0.307
mitoOX (mtOXPHOS transcripts; [7]): −0.320
Viability (C2C12 myotubes; [7]): −0.943
ROS (reactive oxygen species; [7]): 1.068
ΔΨm [2, 7]: −0.816
GE-HTS (OXPHOS gene expression; [7]): −0.254

CC(C)c1c(O)ccc2c1CC[C@H]1[C@@](C)(CO)CCC[C@]21C [19-hydroxytotarol]
nucOX (nuOXPHOS transcripts; [5]): −0.128
MTT [1, 5]: 1.198
cyt c (cytochrome c; [5]): 1.305
mitoOX (mtOXPHOS transcripts; [5]): 0.086
Viability (C2C12 myotubes; [5]): −0.207
ROS (reactive oxygen species; [5]): 1.558
ΔΨm [2, 5]: 0.453
GE-HTS (OXPHOS gene expression; [5]): −0.041

C[C@@H]1CC[C@H]2[C@@H](C)C(=O)O[C@@H]3O[C@@]4(C)CC[C@@H]1[C@]32OO4 [artemisinin]
nucOX (nuOXPHOS transcripts; [8]): 0.537
MTT [1, 8]: 0.616
cyt c (cytochrome c): 0.522
cyt c (cytochrome c; [8]): 1.104
mitoOX (mtOXPHOS transcripts; [8]): 0.903
Viability (C2C12 myotubes; [8]): 0.336
ROS (reactive oxygen species; [8]): 0.123
ΔΨm [2, 8]: −0.832
GE-HTS (OXPHOS gene expression; [8]): 0.704

Nc1ccc(/N=N/c2ccccc2)c(N)n1 [phenazopyridine]
nucOX (nuOXPHOS transcripts; [9]): −0.323
nucOX (nuOXPHOS transcripts; [7]): 0.207
MTT [1, 9]: −2.094
MTT [1, 7]: −0.692
cyt c (cytochrome c; [9]): 0.678
cyt c (cytochrome c; [7]): 0.335
mitoOX (mtOXPHOS transcripts; [9]): −0.930
mitoOX (mtOXPHOS transcripts; [7]): 0.544
Viability (C2C12 myotubes; [9]): −0.413
Viability (C2C12 myotubes; [7]): 0.627
ROS (reactive oxygen species; [9]): 0.587
ROS (reactive oxygen species; [7]): 1.911
ΔΨm [2, 9]: 0.126
ΔΨm [2, 7]: 1.263
GE-HTS (OXPHOS gene expression; [9]): −0.561
GE-HTS (OXPHOS gene expression; [7]): 0.362

CC(=O)O[C@@H]1C[C@H]2C(C)(C)C(=O)CC[C@]2(C)[C@H]2CC[C@@]3(C)[C@H](c4ccoc4)OC(=O)[C@H]4O[C@]43[C@@]21C [dihydrogedunin]
nucOX (nuOXPHOS transcripts; [5]): 0.613
MTT [1, 5]: −0.017
cyt c (cytochrome c; [5]): 0.460
mitoOX (mtOXPHOS transcripts; [5]): 0.323
Viability (C2C12 myotubes; [5]): 0.637
ROS (reactive oxygen species; [5]): −0.690
ΔΨm [2, 5]: 1.079
GE-HTS (OXPHOS gene expression; [5]): 0.575

COc1ccc(/C=C/C(=O)O)cc1OC [dimethylcaffeic acid]
nucOX (composite Z-score) (nuOXPHOS transcripts; Conc 20 μM): −0.838
MTT (composite Z-score) ([1]; Conc 20 μM): −1.206
cyt c (composite Z-score) (cytochrome c; Conc 20 μM): 0.804
mitoOX (composite Z-score) (mtOXPHOS transcripts; Conc 20 μM): −0.885
Viability (composite Z-score) (C2C12 myotubes; Conc 20 μM): 0.147
ROS (composite Z-score) (reactive oxygen species; Conc 20 μM): −0.142
ΔΨm (composite Z-score) ([2]; Conc 20 μM): −0.061
GE-HTS (composite Z-score) (OXPHOS gene expression; Conc 20 μM): −0.924

7-deshydroxypyrogallin-4-carboxylic acid
nucOX (nuOXPHOS transcripts; [5]): −1.039
MTT [1, 5]: −0.460
cyt c (cytochrome c; [5]): 0.419
mitoOX (mtOXPHOS transcripts; [5]): −0.770
Viability (C2C12 myotubes; [5]): 0.121
ROS (reactive oxygen species; [5]): −0.210
ΔΨm [2, 5]: −1.109
GE-HTS (OXPHOS gene expression; [5]): −0.997
